Experimental data as given in BigSolDB 2.1.

CN1CCN(C(=O)O[C@H]2c3nccnc3C(=O)N2c2ccc(Cl)cn2)CC1
solubility (mole fraction)
Details | 288.15 K | 293.15 K | 298.15 K | 303.15 K | 308.15 K | 313.15 K | 318.15 K | 323.15 K | 328.15 K
in acetone | 0.0013 | 0.0015 | 0.0019 | 0.0023 | 0.0027 | 0.0032 | 0.0037 | – | –
in ethanol | 0.0002 | 0.0003 | 0.0004 | 0.0004 | 0.0005 | 0.0007 | 0.0009 | 0.001 | 0.0012
